Test results: ChEMBL document CHEMBL4665833, “Systematic Study of the Glutathione Reactivity of N-Phenylacrylamides: 2. Effects of Acrylamide Substitution” (J Med Chem, 2020)

Columns and labels:
Format in all cases: ADME
[1] = GSH reactivity in pH 7.4 phosphate buffer assessed as half life at 1 uM in presence of glutathione measured up to 120 mins by LC/MS analysis; conditions: phosphate buffer with glutathione
[2] = GSH reactivity in pH 7.4 phosphate buffer assessed as pseudo first-order rate constant at 1 uM in presence of glutathione measured up to 120 mins by LC/MS analysis; conditions: pH 7.4, 2 h
[3] = GSH reactivity in pH 7.4 phosphate buffer assessed as change in gibbs free energy at 1 uM in presence of glutathione measured up to 120 mins by LC/MS analysis; conditions: pH 7.4, 2 h

Row | half-life at 1 µM [1] | K [2] | deltaG [3] | Structure (SMILES)
1 | 5.43 h | 2.13 10^-3/min |  | CN(C/C=C/C(=O)Nc1ccccc1)CCF
2 |  |  | > 24.7 kcal/mol | O=C(/C=C/CN1CC(F)(F)C(F)(F)C1)Nc1ccccc1
3 |  |  | 23.9 kcal/mol | CN(C)C/C=C/C(=O)Nc1ccccc1
4 |  |  | 24.1 kcal/mol | CCN(CC)C/C=C/C(=O)Nc1ccccc1
5 |  |  | 22.6 kcal/mol | C=C(C(=O)Nc1ccccc1)C(F)(F)F
6 | 0.05 h | 231 10^-3/min | 21.6 kcal/mol | C=C(Cl)C(=O)Nc1ccccc1
7 |  |  | 24.7 kcal/mol | CN(C)CC/C=C/C(=O)Nc1ccccc1
8 |  | < 1.35 10^-3/min |  | O=C(/C=C/CN1CC(F)C1)Nc1ccccc1
9 |  |  | 23.3 kcal/mol | O=C(/C=C/C(F)F)Nc1ccccc1
10 |  |  | < 21.4 kcal/mol | C=C(CN(C)C)C(=O)Nc1ccccc1
11 |  |  | 24.1 kcal/mol | O=C(/C=C/CN1CCCC1)Nc1ccccc1

Row | Structure (SMILES) | half-life at 1 µM [1] | K [2] | deltaG [3]
12 | C=CC(=O)Nc1ccccc1 |  |  | 24.1 kcal/mol
